What was measured:
[1] = Evaluation of pharmacokinetics in rats; format: in vivo; conditions: male, SD, rat, plasma, 1 mg/kg, oral gavage (PO, 1 mpk)
Source text: Test Animals: 6-8 Week Old Male SD Rats
Food was restored two hours after dosing.

[2] = Evaluation of pharmacokinetics in mice; conditions: male, ICR (CD1), mouse, plasma, po, 10 mg/kg
Protocol: Test Objective: The pharmacokinetics of the example compounds of the present application were tested in mice. By measuring the drug concentration in mouse plasma, the pharmacokinetic behavior of the compounds of the present invention was studied to evaluate their pharmacokinetic characteristics.
Test Animals: 6-8 Week Old Male ICR (CD1) Mice
Oral Gavage Drug Preparation: An appropriate amount of the test compound was first weighed and dissolved in DMSO (Macklin cas: 67-68-5) to prepare a 20 mg/mL solution. Then, 75 μL of this solution was added to 150 μL of Solutol (Sigma cas: 70142-34-6), followed by 1.275 mL of 20% Captisol (Selleck cas: 182410-00-0), resulting in a final drug concentration of 1 mg/mL.
Intravenous Injection Drug Preparation: An appropriate amount of the test compound was first weighed and dissolved in DMSO (Macklin cas: 67-68-5) to prepare a 30 mg/mL solution. Then, 15 μL of this solution was added to 150 μL of Solutol (Sigma cas: 70142-34-6), followed by 1.335 mL of 20% Captisol (Selleck cas: 182410-00-0), resulting in a final drug concentration of 0.3 mg/mL.
Procedures: The mice were fasted overnight with free access to water before the experiment. Food was restored two hours after dosing. Blood samples were collected at different time points after intravenous injection or oral gavage of the test compound in mice, and the compound concentration in plasma was measured. Approximately 50 μL of blood was collected from each animal using a capillary sampling tube via the orbital venous plexus, with heparin sodium as an anticoagulant. Blood samples were placed on ice, centrifuged at 3500 r/min for 10 minutes to separate the plasma, and 20 μL of the collected plasma was added to 200 μL of acetonitrile (Merck cas: 75-05-8) containing 200 nM dexamethasone (Selleck cas: 50-02-2) as an internal standard. The mixture was centrifuged at 8000 r/min for 20 minutes. After centrifugation, 150 μL of the supernatant was transferred to a new centrifuge tube, and 150 μL of 0.1% formic acid (Fisher cas: 207868) was added. The mixture was mixed well, and 5 μL of the sample was subjected to quantitative analysis by liquid chromatography-mass spectrometry (Q-TOF LC/MS).
The test compound was serially diluted with DMSO to cover the compound concentrations expected in plasma samples to be tested, with a blank sample (containing only DMSO) included.
2 μL of each diluted sample at various concentrations was added to 18 μL of normal ICR mouse plasma, mixed, and then added to 200 μL of acetonitrile (Merck cas: 75-05-8) containing 200 nM dexamethasone (Selleck cas: 50-02-2) as an internal standard. The mixture was centrifuged for 20 minutes (8000 r/min). 150 μL of the supernatant was transferred to a new centrifuge tube, and 150 μL of 0.1% formic acid (Fisher cas: 207868) was added. The mixture was mixed well, and 5 μL of the sample was subjected to quantitative analysis by liquid chromatography-mass spectrometry (Q-TOF LC/MS).
The final standard curve was plotted using the concentration of the test compound after dilution on the abscissa and the ratio of the signal of the compound to the internal standard (dexamethasone) on the ordinate. The standard curve was generated using linear regression with GraphPad Prism 8 software (R2>0.9900).
Data Analysis: calculation of pharmacokinetic parameters: the concentration of the test compound in plasma at different time points after intravenous injection or oral gavage in ICR mice was determined based on the above standard curve, and pharmacokinetic parameters (T1/2, Cmax, AUC, etc.) were calculated using the Phoenix WinNonlin 8.1 non-compartmental analysis model.

[3] = Liver microsome metabolism assay; conditions: CD1, mouse, liver microsomes
Protocol: Experimental Materials: Mixed CD1 mouse liver microsomal enzyme protein was purchased from Xenotech (#M1000), and NADPH was purchased from Abmole (#M9076).
1. To the liver microsomal enzyme reaction system, 210 μL of phosphate buffer was added, followed by 12.5 μL of liver microsomal enzyme at a concentration of 20 mg/mL. Then, 25 μL of NADPH at a concentration of 10 mM was added to the system, mixed well, and incubated in a 37° C. water bath with shaking for 10 minutes.
2. The test compound, stored at a concentration of 10 mM, was diluted to 100 μM with DMSO. Then, 2.5 μL of the diluted test compound was added to the reaction system, mixed well, and incubated in a 37° C. water bath with shaking.
3. At 0.5, 5, 10, 20, 30, and 60 minutes, 25 μL of the enzyme reaction mixture was taken and added to 125 μL of cold acetonitrile containing dexamethasone as an internal standard. The mixture was centrifuged at 4000 g for 20 minutes, and the supernatant was mixed with an equal volume of distilled water. The mixed sample was then subjected to quantitative analysis by liquid chromatography-mass spectrometry.
4. Calculation of in vitro drug metabolism half-life and drug clearance rate:
t1/2=−0.693/k. (k: the slope of the linear regression of the natural logarithm of the percentage of drug remaining versus incubation time).

PARP1 [4] = target: T1, PARP1 (Homo sapiens (Human), UniProt P09874); experiment: PARP enzyme activity assay (PARP1 chemiluminescent assay kit); format: biochemical; conditions: enzyme inhibitory activity, read-out: PARP-1 IC50
Source text: Experimental Materials: The PARP1 assay kit was purchased from BPS Bioscience, USA, specifically the 384-well chemiluminescent assay kit (Catalog No.: #80551).
Experimental Principle: PARP can catalyze the transfer of ADP-ribose residues from NAD+ to target substrates, thereby modifying proteins through ribosylation. This experiment measures PARP1 enzyme activity by detecting the poly(ADP-ribosylation) of histones by PARP1.
Preparation of Reagents and Test Compounds: The 10× assay buffer included in the kit was diluted to 1× with distilled water. The test compound (stock concentration of 10 mM) was diluted to 10 μM with a DMSO solution and then serially diluted in a 1:3 ratio. The serially diluted compounds were further diluted 10-fold with the 1× assay buffer.
Experimental Method: The procedure was carried out according to the kit's instructions:
1. The 5× histone mixture was diluted to 1× with PBS, and 25 μL was added to each well of a 384-well plate, incubating overnight at 4° C.
2. After incubation, 100 μL of PBST (0.05% Tween 20) was added to each well for washing, repeated three times. Then, 100 μL of blocking solution was added to each well and incubated at room temperature for 90 minutes.
3. After incubation, the wells were washed three times with PBST, and then 1.25 μL of 10× assay buffer, 1.25 μL of 10×PARP assay mixture, 2.5 μL of activation DNA (5×), and 7.5 μL of distilled water were added to each well.
4. […] The positive control group and the negative control group were added with 1× assay buffer containing the same concentration of DMSO.
5. Next, 10 μL of 2.5 ng/μL PARP1 enzyme was added to the test compound and positive control groups, while 10 μL of 1× assay buffer was added to the negative control group, and the mixture was incubated at room temperature for 60 minutes.
6. Streptavidin-HRP was diluted 1:50 with the blocking solution. After incubation, the plate was washed three times with PBST, and 25 μL of the diluted streptavidin-HRP solution was added to each well, incubating at room temperature for 30 minutes.
7. After incubation, the plate was washed three times with PBST, and 50 μL of the mixed substrate A and substrate B in equal volumes was added. The luminescence signal was immediately read on a Synergy HTX multi-mode reader.
(§1) 8. Data analysis was performed using GraphPad Prism 8.0 software. The inhibition rate %=100*(average luminescence signal of the positive control group−luminescence signal of the compound)/(average luminescence signal of the positive control group−average luminescence signal of the negative control group). The IC50 value was obtained by plotting the logarithm of the compound concentration against the percentage inhibition rate.

[5] = system: MDA-MB-436 breast cancer cells; experiment: Cell proliferation assay, MDA-MB-436; format: cell-based; conditions: Homo sapiens, MDA-MB-436, 168 h; proliferation, 7 days; read-out: MDA-MB-436 Cell IC50
Protocol: Experimental Materials: MDA-MB-436 or UWB1.289 cell lines were purchased from Cobioer Biosciences Co. Ltd. (Nanjing, China). The STR identification results were a complete match, and mycoplasma testing was negative. MDA-MB-436 cells were cultured in DMEM complete medium containing 10% fetal bovine serum, 1% penicillin-streptomycin, 1% insulin, and 16 μg/mL glutathione; UWB1.289 cells were cultured in RMPI1640 complete medium containing 10% fetal bovine serum and 1% penicillin-streptomycin.
1. MDA-MB-436 or UWB1.289 cells were cultured in the aforementioned medium (culture conditions: 37° C., 5.0% CO2 in air) until they reached the logarithmic growth phase. The cells were then digested with trypsin containing 0.25% EDTA, centrifuged at 1000 rpm, and the supernatant was discarded. Cell culture medium was added, and the cell suspension was adjusted to 2×10^4/mL after counting. 135 μL of the cell suspension per well was taken and cultured in a 96-well cell culture plate for 16 hours (culture conditions: 37° C., 5.0% CO2 in air).
2. The test compounds, stored at a concentration of 10 mM, were diluted 2.5 times with DMSO and then serially diluted in a 1:3 gradient (9 gradients). The gradient-diluted samples were further diluted 40 times with serum-free medium, and 15 μL of each was added to the 96-well cell culture plate. The positive control group received serum-free medium containing the same concentration of DMSO, and the negative control group received medium without cells. The cells were then cultured for an additional 7 days.
3. After the culture period, the cell culture plate was placed at room temperature for 30 minutes. Then, 100 μL of CellCounting-Lite 2.0 reagent (Vazyme, #DD1101) was added to each well, mixed thoroughly, and incubated in the dark at room temperature for 10 minutes. The luminescence signal was read using a Synergy HTX multi-mode reader.
as §1, with “4. Data” for “8. Data”, “rate (%) was calculated as 100*(average” for “rate %=100*(average”

PARP1 [6] = target: T1, PARP1; experiment: PARP1 trapping assay; format: biochemical; conditions: read-out: Inhibitory Effect on PARP1 Trapping IC50
Protocol: [table] […] 1. A 4× enzyme reaction mixture, comprising PARP1, PARP2, and GST-Tb antibody, was prepared with the buffer and 4 μL of the enzyme reaction mixture was added to a 384-well plate. 2. A 4×PARP1 and PARP2 probe reaction mixture was prepared with the buffer and 4 μL of the probe reaction mixture was added to the 384-well plate. 3. A series of gradient-diluted compounds were prepared and 4 μL of the diluted compounds were added to the 384-well plate, and incubated at room temperature for 45 minutes. 4. After incubation, 4 μL of 4×NAD reaction mixture was added to the 384-well plate and incubated at room temperature for 10 minutes. 5. After incubation, the plate was read using a plate reader. 6. Data Analysis: The percentage inhibition rate was calculated as follows: Inhibition Rate (%)=(Reading of Compound Group−Reading of Blank Group)/(Reading of Vehicle Control Group−Reading of Blank Group).

[7] = system: peripheral blood reticulocytes; experiment: Effect of compound on rat reticulocytes; format: in vivo; conditions: 4 days
Protocol: Test Objective: The effect of the compound on peripheral blood reticulocytes was evaluated to determine its impact on bone marrow hematopoietic function.
(§2) Test Compounds: Olaparib, Compound 1
(§3) Experimental Animals: Male Sprague Dawley rats were purchased from Beijing Charles River Laboratory Animal Technology Co., Ltd. Housing and Management: The experimental animals were housed in SPF-grade, temperature- and humidity-controlled clean rooms, using individually ventilated cages (IVC) with no more than 5 rats per cage. Temperature/humidity was controlled within the range of (23±3)° C./40-70%. Feed and water: SPF-grade rat feed, sterilized by cobalt-60 irradiation. Drinking water was ultrafiltered and autoclaved. Animals had free access to sterile food and water. Animal identification: ear tags.
Experimental Method: The experiment was divided into the following 5 groups: vehicle control group; Olaparib 100 mg/kg; Compound 1 0.1 mg/kg; Compound 1 0.3 mg/kg; and Compound 1 1.0 mg/kg. All treatments were administered orally by gavage once daily for 4 days. Blood samples were collected before and after treatment to measure peripheral blood reticulocyte counts.

[8] = system: human breast cancer (MDA-MB-436) cell line; experiment: Mouse CDX tumor model (MDA-MB-436 subcutaneous xenograft); format: in vivo
Protocol: Test Objective: The efficacy of the compounds was evaluated in a subcutaneous xenograft model of human breast cancer (MDA-MB-436) cell line in mice.
as §2
Experimental Animals: Female NOD SCID mice, 4-5 weeks old, purchased from Nanjing Jicui.
as §3, with “Housing” for “Experimental Animals: Male Sprague Dawley rats were purchased from Beijing Charles River Laboratory Animal Technology Co., Ltd. Housing”, “5 mice” for “5 rats”, “SPF-grade mouse” for “SPF-grade rat”
Tumor Cell Line and Tumor Model: MDA-MB-436 cells (Nanjing Cobioer Biotechnology Co., Ltd., Cat. No: CBP60385) were cultured in vitro in DMEM complete medium containing 10% fetal bovine serum, 1% penicillin-streptomycin, 1% insulin, and 16 μg/mL glutathione (37° C., 5% CO2). When the cells met the requirements for the in vivo efficacy experiment, they were collected, counted, and prepared into a PBS cell suspension. Each mouse (5-6 weeks old NOD SCID) was inoculated subcutaneously on the right flank with 0.9×10^7 cells. Tumor volume was measured and calculated three times a week after inoculation. When the tumor volume reached approximately 200-300 mm^3, the mice were grouped for administration.
Experimental Groups: The experiment was divided into the following groups: vehicle control group; Olaparib 100 mg/kg group; Compound 1 0.1 mg/kg group; Compound 1 0.3 mg/kg group; and Compound 1 1.0 mg/kg group. All groups were administered orally by gavage once daily. […] After 28 days of administration, the tumor volume was used to calculate the tumor growth inhibition rate (TGI %), and the tumor inhibition effect was statistically analyzed using software such as Excel, etc.

T1 sequence (P09874 whole entry): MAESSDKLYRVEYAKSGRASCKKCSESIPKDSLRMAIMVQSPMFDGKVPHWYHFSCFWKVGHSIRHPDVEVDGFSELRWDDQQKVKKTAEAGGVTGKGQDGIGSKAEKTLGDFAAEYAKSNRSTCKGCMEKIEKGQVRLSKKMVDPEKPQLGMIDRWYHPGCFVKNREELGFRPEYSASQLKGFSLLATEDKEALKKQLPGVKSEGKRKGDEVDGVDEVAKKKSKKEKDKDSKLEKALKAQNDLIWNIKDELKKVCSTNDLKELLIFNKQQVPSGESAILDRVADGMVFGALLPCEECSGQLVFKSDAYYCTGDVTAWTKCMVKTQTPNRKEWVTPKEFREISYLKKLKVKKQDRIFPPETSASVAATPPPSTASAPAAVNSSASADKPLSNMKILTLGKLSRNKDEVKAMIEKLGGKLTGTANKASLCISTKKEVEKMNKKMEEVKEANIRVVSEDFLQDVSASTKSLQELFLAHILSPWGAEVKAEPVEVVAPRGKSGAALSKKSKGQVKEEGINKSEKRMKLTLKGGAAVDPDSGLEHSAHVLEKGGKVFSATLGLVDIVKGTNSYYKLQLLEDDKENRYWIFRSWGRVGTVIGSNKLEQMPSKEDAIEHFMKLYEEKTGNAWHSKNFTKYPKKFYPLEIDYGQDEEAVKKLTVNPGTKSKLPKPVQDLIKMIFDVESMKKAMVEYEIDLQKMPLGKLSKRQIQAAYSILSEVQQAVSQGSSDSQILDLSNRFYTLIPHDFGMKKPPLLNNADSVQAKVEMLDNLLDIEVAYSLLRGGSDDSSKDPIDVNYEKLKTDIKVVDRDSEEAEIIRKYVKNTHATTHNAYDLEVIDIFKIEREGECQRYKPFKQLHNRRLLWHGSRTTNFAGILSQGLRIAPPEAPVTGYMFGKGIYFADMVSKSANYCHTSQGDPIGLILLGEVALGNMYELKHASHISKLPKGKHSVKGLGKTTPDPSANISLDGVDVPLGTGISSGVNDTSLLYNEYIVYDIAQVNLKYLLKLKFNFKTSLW

Row | SMILES | AUC(0-inf) [2] | Cmax [2] | half-life [2] | microsomal CLint at 1 µM [3] | IC50 [5] | IC50 (PARP1 [6]) | other results
1 | CCc1cc2ncc(CN3CCN(c4ccc(C(=O)NC)nc4)CC3)cc2[nH]c1=O [AZD5305, reference compound] | 357 µg·h/mL | 37300 ng/mL | 8.25 h | 1.23 µL/min/mg | – | – | AUC(0-inf) [1]: 5.6 µg·h/mL; Cmax [1]: 1400 ng/mL; half-life [1]: 4.09 h
2 | Cc1c(C(F)(F)F)c(=O)[nH]c2cc(CN3CCN(c4cc5c(cn4)C(=O)NC5)CC3)cnc12 [Compound 15, 4-methyl-7-((4-(3-oxo-2,3-dihydro-1H-pyrrolo[3,4-c]pyridin-6-yl)piperazin-1-yl)methyl)-3-(trifluoromethyl)-1,5-naphthyridin-2(1H)-one] | – | – | – | 0.75 µL/min/mg | – | – | IC50 (PARP1 [4]): 3.48 nM
3 | CNC(=O)c1ccc(N2CCN(C(C)c3cnc4c(C)c(C(F)(F)F)c(=O)[nH]c4c3)CC2)cn1 (stereo not drawn) [Compound 24, N-methyl-5-(4-(1-(8-methyl-6-oxo-7-(trifluoromethyl)-5,6-dihydro-1,5-naphthyridin-3-yl)ethyl)piperazin-1-yl)picolinamide] | 1100 µg·h/mL | 26300 ng/mL | 28.7 h | 0.4 µL/min/mg | 4.32 nM | – | –
4 | CNC(=O)c1ccc(N2CCN(Cc3cc4[nH]c(=O)c(C(F)(F)F)c(C)c4cn3)[C@H](C)C2)cn1 [Compound 87, (R)—N-methyl-5-(3-methyl-4-((4-methyl-2-oxo-3-(trifluoromethyl)-1,2-dihydro-1,6-naphthyridin-7-yl)methyl)piperazin-1-yl)picolinamide] | – | – | – | 1.01 µL/min/mg | 5.73 nM | 2.57 nM | –
5 | CNC(=O)c1ccc(N2CCN(Cc3cc4[nH]c(=O)c(C(F)(F)F)c(C)c4cn3)C[C@H]2C)cn1 [Compound 88, (R)—N-methyl-5-(2-methyl-4-((4-methyl-2-oxo-3-(trifluoromethyl)-1,2-dihydro-1,6-naphthyridin-7-yl)methyl)piperazin-1-yl)picolinamide] | 1650 µg·h/mL | 38200 ng/mL | 26.3 h | 0.84 µL/min/mg | 5.75 nM | 1.55 nM | –
6 | CNC(=O)c1ccc(N2CCN([C@H](C)c3cnc4c(C)c(C(F)(F)F)c(=O)[nH]c4c3)CC2)cn1 [Compound 90, (R)—N-methyl-5-(4-(1-(8-methyl-6-oxo-7-(trifluoromethyl)-5,6-dihydro-1,5-naphthyridin-3-yl)ethyl)piperazin-1-yl)picolinamide] | 1360 µg·h/mL | 49900 ng/mL | 20.2 h | 0.21 µL/min/mg | 7.26 nM | 4.33 nM | –
7 | CNC(=O)c1ccc(N2CCN([C@@H](C)c3cnc4c(C)c(C(F)(F)F)c(=O)[nH]c4c3)CC2)cn1 [Compound 91, (S)—N-methyl-5-(4-(1-(8-methyl-6-oxo-7-(trifluoromethyl)-5,6-dihydro-1,5-naphthyridin-3-yl)ethyl)piperazin-1-yl)picolinamide] | – | – | – | 0.3 µL/min/mg | 3.24 nM | 2.9 nM | –
8 | O=C(c1cc(Cc2n[nH]c(=O)c3ccccc23)ccc1F)N1CCN(C(=O)C2CC2)CC1 [Olaparib, reference compound] | – | – | – | – | – | – | Reticulocyte Inhibition Rate ([7]; 100 mg/kg oral once daily): 91.6%; Effect on peripheral blood reticulocytes (in words) ([7]; 100 mg/kg, p<0.01): significantly reduced; Tumor Growth Inhibition Rate (TGI) ([8]; 100 mg/kg oral once daily, 28 days): 89%; Body weight vs vehicle control group ([8]; MDA-MB-436 model, all treatment groups): no significant difference
